Measurements reported in ChEMBL document CHEMBL5543084, “Development of cannabidiol derivatives as potent broad-spectrum antibacterial agents with membrane-disruptive mechanism” (Eur J Med Chem, 2024).
Values after ≈ are worked out from the molar mass of the structure shown. Active and inactive are the calls of the source. The calls are words filed in the database; no cut-off is given here.

How the values were obtained:
Acinetobacter baumannii = assay: Antibacterial activity against Acinetobacter baumannii R2889 assessed as inhibition of bacterial growth incubated for 24 hrs by broth dilution method; assay type: functional
Staphylococcus aureus [1] = assay: Bactericidal activity against methicillin-resistant Staphylococcus aureus NCTC 10442 assessed as up-regulation of molecular functions related gene expression by measuring uracil DNA N-glycosylase activity (GO:0004844) at 4 times of MIC concentration measured after 90 mins incubation by RNA sequencing (RNA-seq) study; assay type: functional, organism-based
[2] = Cytotoxicity against human HepG2 cells assessed as viable cells at 12.5 microg/ml incubated for 24 hrs by CCK-8 assay; assay type: toxicity, cell-based; details: at 12.5 µg/mL, read-out: Activity
Staphylococcus aureus [3] = assay: Antibacterial activity against Staphylococcus aureus ATCC 29213 assessed as inhibition of bacterial growth incubated for 24 hrs in presence of 1 mM Mg2+ by broth dilution method; assay type: functional
Klebsiella pneumoniae [4] = assay: Antibacterial activity against Klebsiella pneumoniae ATCC 10031 assessed as inhibition of bacterial growth incubated for 24 hrs in presence of 20 uM Fe2+ by broth dilution method; assay type: functional
Escherichia coli [5] = assay: Antibacterial activity against Escherichia coli ATCC 25922 assessed as inhibition of bacterial growth incubated for 24 hrs in presence of 140 mM Na+ by broth dilution method; assay type: functional
[6] = Cytotoxicity against human HepG2 cells assessed as viable cells at 3.125 microg/ml incubated for 24 hrs by CCK-8 assay; assay type: toxicity, cell-based; details: at 3.125 µg/mL, read-out: Activity
Escherichia coli [7] = assay: Bactericidal activity against Escherichia coli ATCC 25922 assessed as change in amino acid metabolism gene expression at 4 times of MIC concentration measured after 90 mins incubation by RNA sequencing (RNA-seq) study; assay type: functional, organism-based
Staphylococcus aureus [8] = assay: Bactericidal activity against methicillin-resistant Staphylococcus aureus NCTC 10442 assessed as down-regulation of biological processes related gene expression by measuring glutamate metabolic process (GO:0006536) at 4 times of MIC concentration measured after 90 mins incubation by RNA sequencing (RNA-seq) study; assay type: functional, organism-based
Staphylococcus aureus [9] = assay: Drug resistance, ratio of MIC for Staphylococcus aureus NCTC 10442 after 21 passages to MIC for Staphylococcus aureus NCTC 10442 during first exposure; assay type: functional
Staphylococcus aureus [10] = assay: Antibacterial activity against Staphylococcus aureus ATCC 29213 assessed as inhibition of bacterial growth incubated for 24 hrs by broth dilution method; assay type: functional
Staphylococcus aureus [11] = assay: Bactericidal activity against methicillin-resistant Staphylococcus aureus NCTC 10442 assessed as down-regulation of biological processes related gene expression by measuring pyrimidine ribonucleoside monophosphate metabolic (GO:0009173) at 4 times of MIC concentration measured after 90 mins incubation by RNA sequencing (RNA-seq) study; assay type: functional, organism-based
Escherichia coli [12] = assay: Bactericidal activity against Escherichia coli ATCC 25922 assessed as change in cell death associated gene expression by measuring down-regulation of LPS export ABC transporter periplasmic-encoding gene (D1792_RS11370) gene expression at 4 times of MIC concentration measured after 90 mins incubation by RNA sequencing (RNA-seq) study; assay type: functional, organism-based
Escherichia coli [13] = assay: Bactericidal activity against Escherichia coli ATCC 25922 assessed as down-regulation of galactose metabolic process (GO:0006012) at 4 times of MIC concentration measured after 90 mins incubation by RNA sequencing (RNA-seq) study; assay type: functional, organism-based
Staphylococcus aureus [14] = assay: Antibacterial activity against methicillin-resistant Staphylococcus aureus NCTC 10442 assessed as inhibition of bacterial growth incubated for 24 hrs in presence of 20 uM Fe3+ by broth dilution method; assay type: functional
Escherichia coli [15] = assay: Bactericidal activity against Escherichia coli ATCC 25922 assessed as change in cell death associated gene expression by measuring down-regulation of glycosyltransferase family 2 (D1792_RS06385) gene expression at 4 times of MIC concentration measured after 90 mins incubation by RNA sequencing (RNA-seq) study; assay type: functional, organism-based
Escherichia coli [16] = assay: Antibacterial activity against Escherichia coli ATCC 25922 assessed as inhibition of bacterial growth incubated for 24 hrs in presence of 20 uM Fe3+ by broth dilution method; assay type: functional
Escherichia coli [17] = assay: Antibacterial activity against Escherichia coli ATCC 25922 assessed as inhibition of bacterial growth incubated for 24 hrs in presence of 19 uM Zn2+ by broth dilution method; assay type: functional
Lipopolysaccharide (LPS) = assay: Displacement of BODIPY-TR-cadaverine from Escherichia coli lipopolysaccharide (LPS) assessed as increase in fluorescence intensity at 2 times MIC measured after 30 mins by fluorescence spectrophotometric analysis; assay type: subcellular
Staphylococcus aureus [18] = assay: Antibacterial activity against Staphylococcus aureus ATCC 29213 assessed as inhibition of bacterial growth incubated for 24 hrs in presence of 140 mM Na+ by broth dilution method; assay type: functional
Staphylococcus aureus [19] = assay: Antibacterial activity against Staphylococcus aureus ATCC 29213 assessed as inhibition of bacterial growth incubated for 24 hrs in presence of 19 uM Zn2+ by broth dilution method; assay type: functional
Klebsiella pneumoniae [20] = assay: Antibacterial activity against Klebsiella pneumoniae ATCC 14581 assessed as inhibition of bacterial growth incubated for 24 hrs by broth dilution method; assay type: functional
Lipoteichoic acid = assay: Displacement of BODIPY-TR-cadaverine from Bacillus subtilis lipoteichoic acid (LTA) assessed as increase in fluorescence intensity at 4 times MIC measured after 30 mins by fluorescence spectrophotometric analysis
Escherichia coli [21] = assay: Bactericidal activity against Escherichia coli ATCC 25922 assessed as change in cell death associated gene expression by measuring down-regulation of CDPglycerol glycero-phosphotransferase (D1792_RS11350) gene expression at 4 times of MIC concentration measured after 90 mins incubation by RNA sequencing (RNA-seq) study; assay type: functional, organism-based
Klebsiella pneumoniae [22] = assay: Antibacterial activity against Klebsiella pneumoniae ATCC 10031 assessed as inhibition of bacterial growth incubated for 24 hrs in presence of 1 mM Mg2+ by broth dilution method; assay type: functional
[23] = Toxicity in C57BL6 mouse assessed as corneal damage treated in eyeballs 4 times in a day for 3 consecutive days; details: in vivo, topical_or_ocular
Staphylococcus aureus [24] = assay: Antibacterial activity against methicillin-resistant Staphylococcus aureus NCTC 10442 assessed as inhibition of bacterial growth incubated for 24 hrs by broth dilution method; assay type: functional
Escherichia coli [25] = assay: Bactericidal activity against Escherichia coli ATCC 25922 assessed as bacterial reduction at 4 time of MIC concentration incubated for 2 hrs by time-kill assay; assay type: functional
Staphylococcus aureus [26] = assay: Bactericidal activity against methicillin-resistant Staphylococcus aureus NCTC 10442 assessed as bacterial reduction at 4 time of MIC concentration incubated for 2 hrs by time-kill assay; assay type: functional
Escherichia coli [27] = assay: Bactericidal activity against Escherichia coli ATCC 25922 assessed as down-regulation down of ferroxidase activity (GO:0004322) at 4 times of MIC concentration measured after 90 mins incubation by RNA sequencing (RNA-seq) study; assay type: functional, organism-based
Staphylococcus aureus [28] = assay: Bactericidal activity against methicillin-resistant Staphylococcus aureus NCTC 10442 assessed as up-regulation of molecular functions related gene expression by measuring aminoacyl-tRNA hydrolase activity (GO:0004045) at 4 times of MIC concentration measured after 90 mins incubation by RNA sequencing (RNA-seq) study; assay type: functional, organism-based
Klebsiella pneumoniae [29] = assay: Antibacterial activity against Klebsiella pneumoniae ATCC 10031 assessed as inhibition of bacterial growth incubated for 24 hrs in presence of 4.5 mM K+ by broth dilution method; assay type: functional

C=C(C)[C@@H]1CCC(C)=C[C@H]1c1c(OCCCNC(=N)N)cc(CCCCC)cc1OCCCNC(=N)N
MIC (Acinetobacter baumannii): 3.12 µg/mL (≈ 6.09 µM) | Activity (Staphylococcus aureus [1]): Active | viability at 24 h, 12.5 microg/ml [2]: 91.3% | MIC (Staphylococcus aureus [3]): 1.56 µg/mL | MIC (Klebsiella pneumoniae [4]): 3.12 µg/mL | MIC (Escherichia coli [5]): 3.12 µg/mL | viability at 24 h, 3.125 microg/ml [6]: 111% | Activity (Escherichia coli [7]): Active | Activity (Staphylococcus aureus [8]): Active | Ratio (Staphylococcus aureus [9]): 4 | MIC (Staphylococcus aureus [10]): 0.78 µg/mL (≈ 1.52 µM) | Activity (Staphylococcus aureus [11]): Active | Activity (Escherichia coli [12]): Active | Activity (Escherichia coli [13]): Active | MIC (Staphylococcus aureus [14]): 0.39 µg/mL | Activity (Escherichia coli [15]): Active | MIC (Escherichia coli [16]): 1.56 µg/mL | MIC (Escherichia coli [17]): 0.78 µg/mL | Activity (Lipopolysaccharide (LPS)): 54% | MIC (Staphylococcus aureus [18]): 0.78 µg/mL | MIC (Staphylococcus aureus [19]): 0.78 µg/mL | MIC (Klebsiella pneumoniae [20]): 1.56 µg/mL (≈ 3.04 µM) | Activity (Lipoteichoic acid): 33.7% | Activity (Escherichia coli [21]): Active | MIC (Klebsiella pneumoniae [22]): 6.25 µg/mL | Activity [23]: Non-Toxic | MIC (Staphylococcus aureus [24]): 0.78 µg/mL (≈ 1.52 µM) | Activity (Escherichia coli [25]): 5.52 log10FFU/ml | Activity (Staphylococcus aureus [26]): 3 log10FFU/ml | Activity (Escherichia coli [27]): Active | Activity (Staphylococcus aureus [28]): Active | MIC (Klebsiella pneumoniae [29]): 6.25 µg/mL
